Converted amounts (≈) assume the structure as drawn.

Holding throughout (experiment): MIC, broth microdilution (NCCLS)
Holding throughout (format): cell-based

Assay [1] concerns Streptococcus pneumoniae Stpn_280-962. The note with it: Table 10, Strain ID O (Table 8): Streptococcus pneumoniae Stpn_280-962. The method, boiled down: (§1)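 Broth microdilution per NCCLS in cation-adjusted Mueller-Hinton broth, with 2-5% lysed horse blood added for S. pneumoniae. Inoculum 3×10^5–7×10^5 CFU/ml, 2-fold drug dilutions, 18-24 h at 35° C; S. pneumoniae under 5-10% CO2, others ambient air. MIC = lowest concentration preventing visible growth.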

Assay [2] has as its system Streptococcus pneumoniae Stpn_49619. The note with it: Table 10, Strain ID M (Table 8): Streptococcus pneumoniae Stpn_49619. An outline of the steps:
as §1

Assay [3] concerns Streptococcus pyogenes Stpy_8668. The note with it: Table 10, Strain ID G (Table 8): Streptococcus pyogenes Stpy_8668. The method, boiled down: as §1
Assay [4] has as its system Haemophilus influenzae Hain_960820544-3. The note with it: Table 10, Strain ID J (Table 8): Haemophilus influenzae Hain_960820544-3; in µg/mL (unit assumed). How it is done: (§2) Strains. The bacterial isolates listed in Table 8 were cultivated from −70° C. frozen stocks by two consecutive overnight passages (P1, P2) at 35° C. on 5% blood agar (Remel, Lenexa, Kans.). Chocolate agar (Remel) is used for Haemophilus influenzae. H. influenzae and Streptococcus pneumoniae are incubated in 5-10% CO2
(§3) Drug Stock Preparation. To determine the amount of solvent to be used to give the desired final concentration, the formula “weight obtained in mg/final concentration in mg/ml” will be used. It will give the amount of solvent in ml needed to be added to give the desired concentration. For example, if 2.5 mg/ml is the desired concentration and the weight of compound is 13.7 mg, then the amount of solvent to be added is […]. Methanol is used as the solvent to dissolve the test compounds. Further dilution of stock is done in sterile, deionized water. Drug stocks are kept frozen at −70° C., protected from light.
(§4) Susceptibility Testing. MICs are determined by the broth microdilution method in accordance with the NCCLS guidelines. In brief, organism suspensions are adjusted to a 0.5 McFarland standard to yield a final inoculum between 3×10^5 and 7×10^5 CFU/ml. Drug dilutions and inocula are made in sterile, cation adjusted Mueller-Hinton Broth (CAMHB) (Remel) for all but S. pneumoniae [CAMHB with 2-5% lysed horse blood (Remel)] and H. influenzae [Haemophilus Test Medium (Remel)]. An inoculum volume of 100 μl is added to wells containing 100 μl of broth with 2-fold serial dilutions of drug. All inoculated microdilution trays are incubated in ambient air at 35° C. for 18-24 hours, except for S. pneumoniae, and H. influenzae (both at 5-10% CO2).
(§5) Following appropriate incubation, the MIC is determined and the MIC is defined as the lowest concentration of the drug that prevented visible growth. […] Antibacterial activity of representative compounds of the invention were compared against telitromycin.

Assay [5] has as its system Haemophilus influenzae Hain_953460299-3. The note with it: Table 10, Strain ID K (Table 8): Haemophilus influenzae Hain_953460299-3; in µg/mL (unit assumed). The procedure: as §2, §3, §4, §5
Assay [6] concerns Staphylococcus aureus Stau_33591. The note with it: Table 10, Strain ID B (Table 8): Staphylococcus aureus Stau_33591; unit assumed. The procedure:
as §2, §3, §4, §5

In assay [7] the test system is Enterococcus faecalis Enfa_bc 11148-2. The note with it: Table 10, Strain ID F (Table 8): Enterococcus faecalis Enfa_bc 11148-2; in µg/mL (unit assumed). How it is done: as §2, §3, §4, §5
Assay [8] concerns Haemophilus influenzae Hain_2762. The note with it: Table 10, Strain ID L (Table 8): Haemophilus influenzae Hain_2762; in µg/mL (unit assumed). How it is done: as §2, §3, §4, §5
Assay [9] concerns Haemophilus influenzae Hain_960730503-3. The note with it: Table 10, Strain ID I (Table 8): Haemophilus influenzae Hain_960730503-3; in µg/mL (unit assumed). The procedure: as §2, §3, §4, §5
Assay [10] has as its system Streptococcus pneumoniae Stpn_Mef 5654. The note with it: Table 10, Strain ID P (Table 8): Streptococcus pneumoniae Stpn_Mef 5654; in µg/mL (unit assumed). The method, boiled down:
as §1

Assay [11] relates to Streptococcus pneumoniae Stpn_297-749. The note with it: Table 10, Strain ID N (Table 8): Streptococcus pneumoniae Stpn_297-749. An outline of the steps:
as §1

For assay [12], the system named is Staphylococcus epidermidis Step_f50654. The note with it: Table 10, Strain ID D (Table 8): Staphylococcus epidermidis Step_f50654; in µg/mL (unit assumed). The method, boiled down:
as §1

The test system of assay [13] is Staphylococcus aureus Stau_29213. The note with it: Table 10, Strain ID A (Table 8): Staphylococcus aureus Stau_29213; in µg/mL (unit assumed). An outline of the steps:
as §1

Assay [14] has as its system Enterococcus faecalis Enfa_29212. The note with it: Table 10, Strain ID E (Table 8): Enterococcus faecalis Enfa_29212; in µg/mL (unit assumed). The method, boiled down: as §1
Assay [15] has as its system Staphylococcus epidermidis Step_14990. The note with it: Table 10, Strain ID C (Table 8): Staphylococcus epidermidis Step_14990; in µg/mL (unit assumed). An outline of the steps: as §1
Assay [16] has as its system Streptococcus pneumoniae Stpn_Mef S 3427. The note with it: Table 10, Strain ID Q (Table 8): Streptococcus pneumoniae Stpn_Mef S 3427; in µg/mL (unit assumed). An outline of the steps: as §1
Assay [17] deals with Streptococcus pneumoniae Stpn_Erm S 4297. The note with it: Table 10, Strain ID R (Table 8): Streptococcus pneumoniae Stpn_Erm S 4297. The method, boiled down:
as §1

For assay [18], the system named is Haemophilus influenzae Hain_49247. The note with it: Table 10, Strain ID H (Table 8): Haemophilus influenzae Hain_49247; unit assumed.

Take `CC[C@H]1OC(=O)[C@H](C)C(=O)[C@H](C)[C@@H](OC2O[C@H](C)C[C@H](N(C)C)[C@H]2O)[C@@](C)(OC)C[C@@H](C)C(=O)[C@H](C)[C@H]2N(CCCCn3cnc(-c4ccc(C)nc4)c3)C(=O)O[C@]12CC` (stereo partly drawn) [XIII]: the MIC entry was “=0.05” in assay [1]; “=0.05” in [2]; “=0.05” in assay [3]; 6.25 in assay [4]; 6.25 in assay [5]; over 50 µg/mL in assay [6]. Besides, the MIC in [7] is recorded as 3.13; in assay [8] it was 1.56; in assay [9], 6.25; in [10], 0.78; in assay [11], “=0.05”; in [12], 0.4. Further, the MIC in assay [13] was determined as 0.4; in assay [14], 0.2; in [15], 0.2; in [16], 0.2; in assay [17] (unit assumed), 0.2 µg/mL (≈ 0.238 µM); in [18], 6.25 µg/mL (≈ 7.44 µM).

Take `C=C[C@]12OC(=O)N(CCCCn3cnc(-c4ccc(F)nc4)c3)[C@@H]1[C@@H](C)C(=O)[C@H](C)C[C@](C)(OC)[C@H](OC1O[C@H](C)C[C@H](N(C)C)[C@H]1O)[C@@H](C)C(=O)[C@@H](C)C(=O)O[C@@H]2CC` (stereo partly drawn) [XIX]: the MIC entry is “=0.05” in assay [1]; “=0.05” in assay [2]; “=0.05” in assay [3]; 6.25 in assay [4]; 6.25 in assay [5]; over 50 µg/mL in assay [6]. In addition, the MIC in [7] is listed as 0.4; in assay [8], 1.56; in [9] it was 12.5; in assay [10], 0.4; in [11], “=0.05”; in [12] it was 0.1. The MIC in assay [13] was 0.1; in assay [14] it was 0.1; in assay [15], 0.1; in assay [16], 0.1; in assay [17] it was “=0.05”; in assay [18] it was 3.13 µg/mL (≈ 3.72 µM).

For `CC[C@H]1OC(=O)[C@H](C)C(=O)[C@H](C)[C@@H](OC2O[C@H](C)C[C@H](N(C)C)[C@H]2O)[C@@](C)(OC)C[C@@H](C)C(=O)[C@H](C)[C@H]2N(CCCCn3cnc(-c4ccc(OC)nc4)c3)C(=O)O[C@]12CC` (stereo partly drawn) [XVII], the MIC result in assay [1] is “=0.05”; in assay [2], “=0.05”; in [3], “=0.05”; in assay [4], 12.5; in assay [5], 12.5; in [6], over 50 µg/mL. The MIC is given as 3.13 in [7]; 1.56 in assay [8]; 6.25 in assay [9]; 0.78 in [10]; “=0.05” in assay [11]; 0.2 in [12]. Besides, the MIC in [13] was 0.2; in assay [14], 0.1; in [15] it was 0.4; in assay [16] it was 0.2; in assay [17] (unit assumed), 0.2 µg/mL (≈ 0.234 µM); in assay [18], 6.25 µg/mL (≈ 7.3 µM).

Turning to `C=C[C@]12OC(=O)N(CCCCn3cc(-c4ccc(OC)nc4)nc3C)[C@@H]1[C@@H](C)C(=O)[C@H](C)C[C@](C)(OC)[C@H](OC1O[C@H](C)C[C@H](N(C)C)[C@H]1O)[C@@H](C)C(=O)[C@@H](C)C(=O)O[C@@H]2CC` (stereo partly drawn) [XXVII], the MIC entry in assay [1] is “=0.05”; in [2], “=0.05”; in assay [3] (unit assumed), 0.1 µg/mL (≈ 0.115 µM); in [4], 6.25; in assay [5], 12.5; in assay [6], over 50 µg/mL. In addition, the MIC in assay [7] is recorded as 6.25; in assay [8] it was 1.56; in [9] it was 12.5; in [10] it was 1.56; in [11], “=0.05”; in assay [12], 0.2. Moreover, the MIC in assay [13] amounted to 0.2; in assay [14], 0.2; in assay [15], 0.2; in [16] it was 0.2; in assay [18], 6.25 µg/mL (≈ 7.2 µM).

In the case of `C=C[C@]12OC(=O)N(CCCCn3cnc(-c4ccc(OC)nc4)c3C)[C@@H]1[C@@H](C)C(=O)[C@H](C)C[C@](C)(OC)[C@H](OC1O[C@H](C)C[C@H](N(C)C)[C@H]1O)[C@@H](C)C(=O)[C@@H](C)C(=O)O[C@@H]2CC` (stereo partly drawn) [XXVI], the MIC result is “=0.05” in assay [1]; “=0.05” in assay [2]; 0.1 µg/mL (≈ 0.115 µM) in assay [3] (unit assumed); 12.5 in [4]; 12.5 in assay [5]; over 50 µg/mL in assay [6]. Moreover, the MIC in [7] is reported as 1.56; in [8] it was 1.56; in [9] it was 12.5; in assay [10], 1.56; in assay [11], “=0.05”; in [12], 0.4. Moreover, the MIC amounted to 0.2 in assay [13]; 0.2 in assay [14]; 0.1 in assay [15]; 0.2 in assay [16]; 6.25 µg/mL (≈ 7.2 µM) in assay [18].

For the molecule `CC[C@H]1OC(=O)[C@H](C)C(=O)[C@H](C)[C@@H](OC2O[C@H](C)C[C@H](N(C)C)[C@H]2O)[C@@](C)(OC)C[C@@H](C)C(=O)[C@H](C)[C@@H]2[C@@H]1OC(=O)N2CCCCn1cnc(-c2ccc(C)nc2)c1` (stereo partly drawn) [XXV], the MIC result in [1] is “=0.05”; in assay [2] it was “=0.05”; in assay [3], “=0.05”; in assay [4] it was 6.25; in assay [5] it was 6.25; in assay [6], over 50 µg/mL. Besides, the MIC in [7] was 3.13; in [8], 1.56; in [9], 6.25; in [10], 1.56; in [11], “=0.05”; in [12], 0.2. Moreover, the MIC in assay [13] is 0.2; in assay [14] it was 0.1; in assay [15] it was 0.2; in assay [16] it was “.04”; in assay [18], 3.13 µg/mL (≈ 3.85 µM).
